Test results taken from PubChem BioAssay (NCI).
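Step 1: Grow cells in 96-well plates. Step 2: Expose to compound for 48 hours at 5 concentrations. Step 3: Interpolate endpoints linearly; if unreached, use highest concentration. Definition used: TGI = concentration required for complete inhibition of growth.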

Columns and labels:
Experiment in all cases: inhibition of tumour cell growth, NCI panel, 48 h
[1] = tested on: RPMI-8226 leukemia
[2] = tested on: BT-549 breast
[3] = tested on: PC-3 prostate
[4] = tested on: A549 NSCLC
[5] = tested on: SN12C renal
[6] = tested on: COLO 205 colon
[7] = tested on: SW-620 colon
[8] = tested on: CCRF-CEM leukemia
[9] = tested on: HOP-62 NSCLC
[10] = tested on: MOLT-4 leukemia
[11] = tested on: OVCAR-8 ovarian
[12] = tested on: OVCAR-5 ovarian
[13] = tested on: A498 renal
[14] = tested on: IGROV1 ovarian
[15] = tested on: SK-MEL-2 melanoma
[16] = tested on: OVCAR-3 ovarian
[17] = tested on: OVCAR-4 ovarian
[18] = tested on: HCT-15 colon
[19] = tested on: NCI-H226 lung
[20] = tested on: SNB-19 CNS
[21] = tested on: NCI-H460 lung
[22] = tested on: T-47D breast
[23] = tested on: UO-31 renal
[24] = tested on: SK-MEL-28 melanoma
[25] = tested on: HCC-2998 colon
[26] = tested on: SR leukemia
[27] = tested on: HT29 colon
[28] = tested on: MDA-N
[29] = tested on: DU-145 prostate
[30] = tested on: ACHN renal
[31] = tested on: RXF 393 renal
[32] = tested on: NCI/ADR-RES ovarian
[33] = tested on: CAKI-1 renal
[34] = tested on: HL-60(TB) leukemia
[35] = tested on: SK-MEL-5 melanoma
[36] = tested on: LOX IMVI melanoma
[37] = tested on: EKVX NSCLC
[38] = tested on: MDA-MB-231 breast
[39] = tested on: HOP-92 NSCLC
[40] = tested on: SK-OV-3 ovarian
[41] = tested on: HCT-116 colon
[42] = tested on: M14 melanoma
[43] = tested on: SF-268 CNS
[44] = tested on: UACC-257 melanoma
[45] = tested on: K-562 leukemia
[46] = tested on: NCI-H23 lung
[47] = tested on: UACC-62 melanoma
[48] = tested on: TK-10 renal
[49] = tested on: U251 CNS
[50] = tested on: SF-295 CNS
[51] = tested on: MALME-3M melanoma
[52] = tested on: MDA-MB-435
[53] = tested on: KM12 colon
[54] = tested on: HS 578T breast
[55] = tested on: 786-0 renal
[56] = tested on: SNB-75 CNS
[57] = tested on: MCF7 breast
[58] = tested on: NCI-H522 lung
[59] = tested on: SF-539 CNS

`CCOC(=O)[C@@H](NC(=O)OC(C)(C)C)[C@@H](O)C(=O)OCC` was tested. Which TGI [1] did it give?
The TGI was > 100 µM.

And the TGI [2]?
The TGI was > 100 µM.

And the TGI [3]?
Its TGI is > 100 µM.

What about the TGI [4] of the same molecule?
The TGI was > 100 µM.

What about the TGI [5] of the same molecule?
Its TGI is > 100 µM.

What about the TGI [6] of the same molecule?
Its TGI is > 100 µM.

And the TGI [7]?
The TGI was > 100 µM.

And the TGI [8]?
The TGI was > 100 µM.

And the TGI [9]?
The TGI was > 100 µM.

And the TGI [10]?
The TGI was > 100 µM.

What about the TGI [11] of the same molecule?
Its TGI is > 100 µM.

And the TGI [12]?
Its TGI is > 100 µM.

And the TGI [13]?
The TGI was > 100 µM.

And the TGI [14]?
Its TGI is > 100 µM.

And the TGI [15]?
Its TGI is > 100 µM.

And the TGI [16]?
The TGI was > 100 µM.

And the TGI [17]?
The TGI was > 100 µM.

And the TGI [18]?
Its TGI is > 100 µM.

And the TGI [19]?
The TGI was > 100 µM.

And the TGI [20]?
The TGI was > 100 µM.

What about the TGI [21] of the same molecule?
The TGI was > 100 µM.

And the TGI [22]?
Its TGI is > 100 µM.

What about the TGI [23] of the same molecule?
Its TGI is > 100 µM.

What about the TGI [24] of the same molecule?
Its TGI is > 100 µM.

And the TGI [25]?
Its TGI is > 100 µM.

What about the TGI [26] of the same molecule?
Its TGI is > 100 µM.

And the TGI [27]?
Its TGI is > 100 µM.

What about the TGI [28] of the same molecule?
The TGI was > 100 µM.

And the TGI [29]?
Its TGI is > 100 µM.

What about the TGI [30] of the same molecule?
Its TGI is > 100 µM.

What about the TGI [31] of the same molecule?
The TGI was > 100 µM.

And the TGI [32]?
Its TGI is > 100 µM.

What about the TGI [33] of the same molecule?
The TGI was > 100 µM.

What about the TGI [34] of the same molecule?
Its TGI is > 100 µM.

And the TGI [35]?
The TGI was > 100 µM.

What about the TGI [36] of the same molecule?
Its TGI is > 100 µM.

What about the TGI [37] of the same molecule?
Its TGI is > 100 µM.

What about the TGI [38] of the same molecule?
The TGI was > 100 µM.

And the TGI [39]?
Its TGI is > 100 µM.

What about the TGI [40] of the same molecule?
The TGI was > 100 µM.

What about the TGI [41] of the same molecule?
Its TGI is > 100 µM.

What about the TGI [42] of the same molecule?
Its TGI is > 100 µM.

And the TGI [43]?
Its TGI is > 100 µM.

What about the TGI [44] of the same molecule?
The TGI was > 100 µM.

And the TGI [45]?
The TGI was > 100 µM.

And the TGI [46]?
Its TGI is > 100 µM.

What about the TGI [47] of the same molecule?
The TGI was > 100 µM.

And the TGI [48]?
The TGI was > 100 µM.

What about the TGI [49] of the same molecule?
The TGI was > 100 µM.

And the TGI [50]?
Its TGI is > 100 µM.

What about the TGI [51] of the same molecule?
The TGI was > 100 µM.

And the TGI [52]?
Its TGI is > 100 µM.

And the TGI [53]?
Its TGI is > 100 µM.

And the TGI [54]?
The TGI was > 100 µM.

And the TGI [55]?
The TGI was > 100 µM.

And the TGI [56]?
The TGI was > 100 µM.

And the TGI [57]?
Its TGI is > 100 µM.

Which results are given for `CN(/N=C/c1ccccc1O)c1ccc2ccccc2n1`?
TGI [1]: > 100 µM; TGI [2]: 61.1 µM; TGI [3]: 34.3 µM; TGI [4]: 29.8 µM; TGI [5]: > 100 µM; TGI [6]: > 100 µM; TGI [7]: > 100 µM; TGI [8]: > 100 µM; TGI [9]: 29.9 µM; TGI [10]: 62.6 µM; TGI [11]: > 100 µM; TGI [12]: > 100 µM; TGI [13]: 38.8 µM; TGI [14]: 42.5 µM; TGI [15]: > 100 µM; TGI [16]: 34.7 µM; TGI [17]: 67.7 µM; TGI [18]: > 100 µM; TGI [19]: > 100 µM; TGI [20]: 30.3 µM; TGI [21]: 55 µM; TGI [22]: 50.4 µM; TGI [23]: 35.2 µM; TGI [24]: > 100 µM; TGI [26]: 36.8 µM; TGI [27]: 90.1 µM; TGI [28]: > 100 µM; TGI [29]: 41.3 µM; TGI [30]: 66.6 µM; TGI [31]: 90 µM; TGI [32]: > 100 µM; TGI [33]: > 100 µM; TGI [34]: > 100 µM; TGI [35]: > 100 µM; TGI [36]: > 100 µM; TGI [37]: 54.9 µM; TGI [38]: > 100 µM; TGI [58]: 80.9 µM; TGI [39]: > 100 µM; TGI [40]: 29.8 µM; TGI [41]: > 100 µM; TGI [42]: > 100 µM; TGI [43]: 53.8 µM; TGI [44]: > 100 µM; TGI [59]: 37.1 µM; TGI [45]: > 100 µM; TGI [46]: 58.4 µM; TGI [47]: > 100 µM; TGI [48]: 44 µM; TGI [49]: 29.8 µM; TGI [50]: 30.4 µM; TGI [51]: 47.8 µM; TGI [52]: > 100 µM; TGI [53]: 65.2 µM; TGI [54]: 72.8 µM; TGI [55]: 31.5 µM; TGI [57]: 30.9 µM
